Tests used:
MRSA 252 (ATCCBAA-1720) = experiment: Disk diffusion assay, MRSA 252; assay type: cell-based, Staphylococcus aureus; settings: at low doses
From the text: (§1) The PVP grafted nanoparticles were employed to non-covalently attach the antibiotic penicillin-G (PenG) and tested for activity against bacteria. Methicillin-resistant Staphylococcus aureus (MRSA)-252, HA-MRSA, CA-MRSA and methicillin-sensitive Staphylococcus aureus (MSSA) were selected as the target bacteria. A control group of free PenG with the same dose was used for the disk diffusion assay of PenG-nanoparticle complex. […] Without wishing to be bound by any particular theory, it is believed that the enhanced inhibition activity was due to the locally high concentrations of antibiotics physically attached to PVP grafted nanoparticles, which overwhelms the bacterial resistance. The small size PVP grafted nanoparticles with controllable surface attached polymer chain lengths offers a significant vehicle to restore antibiotics activities.
(§2) Bacteria Strains: MRSA 252 (ATCCBAA-1720); Staphylococcus aureus ATCC 29213 (community acquired-MRSA); Staphylococcus aureus ATCC BAA 1717 (hospital associated-MRSA); MSSA ATCC BAA 1718. These bacterial strains were grown at 37° C. in tryptic soy broth for 24 hours.
(§3) Preparation of Nanoparticle-PenG Complex: To prepare the nanoparticle-PenG complex, 15 μL of PVP grafted silica nanoparticles solution (26.65 mg/ml) and 1.85 mL DI water were mixed. 200 μL Penicillin G sodium salt aqueous solution (1 mg/mL) was added and incubated at 24° C. […]

[1] = system: MRSA-252, HA-MRSA, CA-MRSA and MSSA; experiment: Disk diffusion assay, result stated over the tested strains together; assay type: cell-based, Staphylococcus aureus; settings: when physically bound to the PVP grafted silica nanoparticles; against MRSA
From the text: as §1, §2, §3

CC1(C)S[C@@H]2[C@H](NC(=O)Cc3ccccc3)C(=O)N2[C@H]1C(=O)[O-].[Na+] [free penicillin-G, penicillin-G]
inhibition activity (disk diffusion) (MRSA 252 (ATCCBAA-1720)): completely ineffective | activity of antibiotic over MRSA [1]: significantly increased

From patent US10954325B2, “Raft agents and their use in the development of polyvinylpyrrolidone grafted nanoparticles” (UNIVERSITY OF SOUTH CAROLINA, priority 2014, dated 2021)
